Assays:
[1] = target: T1, mouse Siglec-2-Fc-Avi (CD22) (Mus musculus, UniProt P35329); test: SPR binding affinity to mouse CD22; conditions: steady-state analysis
T1 construct: made in house
T1 sequence (P35329 22-708 limits assumed): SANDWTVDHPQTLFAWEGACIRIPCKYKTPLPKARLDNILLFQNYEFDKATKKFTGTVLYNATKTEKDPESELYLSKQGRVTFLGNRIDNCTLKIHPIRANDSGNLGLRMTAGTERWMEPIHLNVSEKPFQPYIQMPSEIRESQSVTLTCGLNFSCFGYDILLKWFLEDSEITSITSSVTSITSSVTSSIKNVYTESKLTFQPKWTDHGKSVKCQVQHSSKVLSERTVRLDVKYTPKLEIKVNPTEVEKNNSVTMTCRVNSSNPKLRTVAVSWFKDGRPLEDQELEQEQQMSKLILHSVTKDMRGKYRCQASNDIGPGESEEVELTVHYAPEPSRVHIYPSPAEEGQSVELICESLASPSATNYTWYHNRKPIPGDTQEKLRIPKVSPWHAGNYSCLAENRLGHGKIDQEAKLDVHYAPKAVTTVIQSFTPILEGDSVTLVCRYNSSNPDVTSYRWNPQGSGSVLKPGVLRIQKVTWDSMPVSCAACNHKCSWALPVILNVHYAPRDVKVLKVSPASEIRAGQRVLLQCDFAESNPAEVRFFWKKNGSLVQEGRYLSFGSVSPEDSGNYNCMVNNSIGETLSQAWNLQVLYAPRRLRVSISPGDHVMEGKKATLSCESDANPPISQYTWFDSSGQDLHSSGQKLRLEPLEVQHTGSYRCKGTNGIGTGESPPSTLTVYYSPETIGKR
Summary of the method: (§1)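 Using a Biacore 8K, compounds were tested against biotinylated CD22 captured after sialidase treatment. The running buffer held 1% DMSO, corrected with a 0.5–2% DMSO series. Affinity was derived by steady-state analysis.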

[2] = target: T2, human Siglec-2/CD22 protein (Homo sapiens, UniProt P20273); test: SPR binding affinity to human CD22; conditions: steady-state analysis
T2 construct: purchased Acro Biosystems SI2-H82E3
T2 sequence (P20273 20-847): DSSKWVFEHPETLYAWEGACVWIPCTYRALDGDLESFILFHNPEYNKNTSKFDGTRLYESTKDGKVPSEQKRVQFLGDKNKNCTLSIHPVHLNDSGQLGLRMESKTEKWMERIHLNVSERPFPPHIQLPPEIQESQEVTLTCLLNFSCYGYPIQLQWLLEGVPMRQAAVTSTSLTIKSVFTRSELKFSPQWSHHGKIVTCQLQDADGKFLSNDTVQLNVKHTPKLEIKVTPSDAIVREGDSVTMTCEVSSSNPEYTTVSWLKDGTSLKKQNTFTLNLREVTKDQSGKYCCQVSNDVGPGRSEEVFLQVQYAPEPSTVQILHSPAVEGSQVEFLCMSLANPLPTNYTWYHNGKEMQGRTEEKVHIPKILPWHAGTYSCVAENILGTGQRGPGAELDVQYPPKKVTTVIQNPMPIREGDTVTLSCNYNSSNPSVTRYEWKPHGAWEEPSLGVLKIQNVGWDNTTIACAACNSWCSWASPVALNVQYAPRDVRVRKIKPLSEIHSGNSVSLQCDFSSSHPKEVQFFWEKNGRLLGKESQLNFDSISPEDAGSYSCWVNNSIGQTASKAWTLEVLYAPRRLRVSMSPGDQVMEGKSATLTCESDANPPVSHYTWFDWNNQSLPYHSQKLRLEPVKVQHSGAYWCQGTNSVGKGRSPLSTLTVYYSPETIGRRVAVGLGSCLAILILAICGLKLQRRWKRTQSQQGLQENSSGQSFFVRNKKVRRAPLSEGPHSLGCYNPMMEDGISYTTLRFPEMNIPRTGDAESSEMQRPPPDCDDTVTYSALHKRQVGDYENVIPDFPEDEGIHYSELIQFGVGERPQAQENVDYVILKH
Summary of the method: as §1

[3] = target: cynomolgus Siglec-2/CD22 (Macaca fascicularis, UniProt A0A2K5WCZ6); test: biochemical; assay type: binding; conditions: SPR, steady-state analysis; read-out: Affinity cyno CD22
Sequence of cynomolgus Siglec-2/CD22 (A0A2K5WCZ6 entry or part of it): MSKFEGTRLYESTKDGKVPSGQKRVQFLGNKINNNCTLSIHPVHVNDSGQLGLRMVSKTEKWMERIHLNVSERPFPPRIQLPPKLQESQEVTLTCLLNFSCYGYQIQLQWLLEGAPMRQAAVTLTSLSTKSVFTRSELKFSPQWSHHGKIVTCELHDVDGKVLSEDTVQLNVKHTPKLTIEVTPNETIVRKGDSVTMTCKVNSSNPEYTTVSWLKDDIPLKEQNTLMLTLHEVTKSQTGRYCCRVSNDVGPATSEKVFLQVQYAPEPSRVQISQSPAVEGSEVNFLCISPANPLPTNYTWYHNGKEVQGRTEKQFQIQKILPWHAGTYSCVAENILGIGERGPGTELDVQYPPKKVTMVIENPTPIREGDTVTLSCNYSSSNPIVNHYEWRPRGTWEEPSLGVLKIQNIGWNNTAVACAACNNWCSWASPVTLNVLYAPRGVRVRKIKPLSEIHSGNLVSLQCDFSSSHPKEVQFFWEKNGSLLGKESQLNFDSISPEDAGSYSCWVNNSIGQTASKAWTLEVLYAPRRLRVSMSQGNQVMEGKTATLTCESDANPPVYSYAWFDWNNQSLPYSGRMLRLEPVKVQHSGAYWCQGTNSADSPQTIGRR
Summary of the method: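 Compound binding measured by steady-state SPR analysis, 120 s dissociation, in HEPES-NaCl-Tween buffer pH 7.5 containing 1% DMSO, DMSO solvent-corrected. Surface: cyno CD22, sialic acids first stripped by SialoExo for 4 h at 37° C., then amine-coupled onto CM5.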

Structure (SMILES)	Kd [1] [µM]	Kd [2] [µM]	Kd [3] [µM]
C#CCOCCOCCO[C@]1(C(=O)O)C[C@H](O)[C@@H](NC(=O)CNC(C)=O)[C@H]([C@H](O)[C@H](O)CNC(=O)Cc2ccc(-c3ccc(O)cc3)cc2)O1 [Compound 57, (2R,4S,5R,6R)-5-(2-acetamidoacetamido)-6-((1R,2R)-1,2-dihydroxy-3-(2-(4′-hydroxy-[1,1′-biphenyl]-4-yl)acetamido)propyl)-4-hydroxy-2-(2-(2-(prop-2-yn-1-yloxy)ethoxy)ethoxy)tetrahydro-2H-pyran-2-carboxylic acid]	> 10	1 to 10	1 to 10
O=C(O)CCCCCCO[C@]1(C(=O)O)C[C@H](O)[C@@H](NC(=O)CO)[C@H]([C@H](O)[C@H](O)CNC(=O)Cc2ccc(Cl)cc2)O1 [Compound 98, (2R,4S,5R,6R)-2-((6-carboxyhexyl)oxy)-6-((1R,2R)-3-(2-(4-chlorophenyl)acetamido)-1,2-dihydroxypropyl)-4-hydroxy-5-(2-hydroxyacetamido)tetrahydro-2H-pyran-2-carboxylic acid]	1 to 10	< 1	< 1
C#CCOCCCCCCO[C@]1(C(=O)O)C[C@H](O)[C@@H](NC(=O)COc2ccccc2)[C@H]([C@H](O)[C@H](O)CNC(=O)Cc2ccc(Cl)cc2)O1 [Compound 91, (2R,4S,5R,6R)-6-((1R,2R)-3-(2-(4-chlorophenyl)acetamido)-1,2-dihydroxypropyl)-4-hydroxy-5-(2-phenoxyacetamido)-2-((6-(prop-2-yn-1-yloxy)hexyl)oxy)tetrahydro-2H-pyran-2-carboxylic acid]	> 10	1 to 10	< 1
C#CCOCCOCCO[C@]1(C(=O)O)C[C@H](O)[C@@H](NC(=O)CO)[C@H]([C@H](O)[C@H](O)CNC(=O)c2ccc(Cl)cc2)O1 [Compound 30, (2R,4S,5R,6R)-6-((1R,2R)-3-(4-chlorobenzamido)-1,2-dihydroxypropyl)-4-hydroxy-5-(2-hydroxyacetamido)-2-(2-(2-(prop-2-yn-1-yloxy)ethoxy)ethoxy)tetrahydro-2H-pyran-2-carboxylic acid]	> 10	1 to 10	1 to 10
C#CCOCCOCCO[C@]1(C(=O)O)C[C@H](O)[C@@H](NC(=O)CO)[C@H]([C@H](O)[C@H](O)CNC(=O)Cc2cccc(Cl)c2)O1 [Compound 125, (2R,4S,5R,6R)-6-((1R,2R)-3-(2-(3-chlorophenyl)acetamido)-1,2-dihydroxypropyl)-4-hydroxy-5-(2-hydroxyacetamido)-2-(2-(2-(prop-2-yn-1-yloxy)ethoxy)ethoxy)tetrahydro-2H-pyran-2-carboxylic acid]	1 to 10	< 1	1 to 10
C#CCOCCCCCCO[C@]1(C(=O)O)C[C@H](O)[C@@H](NCC(N)=O)[C@H]([C@H](O)[C@H](O)CNC(=O)Cc2ccc(Cl)cc2)O1 [Compound 182, (2R,4S,5R,6R)-5-((2-amino-2-oxoethyl)amino)-6-((1R,2R)-3-(2-(4-chlorophenyl)acetamido)-1,2-dihydroxypropyl)-4-hydroxy-2-((6-(prop-2-yn-1-yloxy)hexyl)oxy)tetrahydro-2H-pyran-2-carboxylic acid]	1 to 10	1 to 10	1 to 10
CC(=O)NCCOCCOCCOCCOCCC(=O)NCCCCCCO[C@]1(C(=O)O)C[C@H](O)[C@@H](NC(=O)CO)[C@H]([C@H](O)[C@H](O)CNC(=O)Cc2ccc(C(F)F)cc2)O1 [Cpd. 256, (2R,4S,5R,6R)-6-((1R,2R)-3-(2-(4-(difluoromethyl)phenyl)acetamido)-1,2-dihydroxypropyl)-2-((2,18-dioxo-6,9,12,15-tetraoxa-3,19-diazapentacosan-25-yl)oxy)-4-hydroxy-5-(2-hydroxyacetamido) tetrahydro-2H-pyran-2-carboxylic acid]	1 to 10	< 1	< 1
C#CCOCCOCCO[C@]1(C(=O)O)C[C@H](O)[C@@H](NC(=O)CC#N)[C@H]([C@H](O)[C@H](O)CNC(=O)Cc2ccc(-c3ccc(O)cc3)cc2)O1 [Compound 58, (2R,4S,5R,6R)-5-(2-cyanoacetamido)-6-((1R,2R)-1,2-dihydroxy-3-(2-(4′-hydroxy-[1,1′-biphenyl]-4-yl)acetamido)propyl)-4-hydroxy-2-(2-(2-(prop-2-yn-1-yloxy)ethoxy)ethoxy)tetrahydro-2H-pyran-2-carboxylic acid]	1 to 10	1 to 10	1 to 10

More lines, now with the values ahead:

Kd [1] [µM]	Kd [2] [µM]	Kd [3] [µM]	Structure (SMILES)
1 to 10	< 1	< 1	C#CCOCCCCCCO[C@]1(C(=O)O)C[C@H](O)[C@@H](NC(=O)C(F)(F)F)[C@H]([C@H](O)[C@H](O)CNC(=O)Cc2ccc(Cl)cc2)O1 [Compound 90, (2R,4S,5R,6R)-6-((1R,2R)-3-(2-(4-chlorophenyl)acetamido)-1,2-dihydroxypropyl)-4-hydroxy-2-((6-(prop-2-yn-1-yloxy)hexyl)oxy)-5-(2,2,2-trifluoroacetamido)tetrahydro-2H-pyran-2-carboxylic acid]
1 to 10	1 to 10	< 1	C#CCCOc1ccc(CO[C@]2(C(=O)O)C[C@H](O)[C@@H](NC(=O)CO)[C@H]([C@H](O)[C@H](O)CNC(=O)Cc3ccccc3N3CCOCC3)O2)cc1 [Compound 138, (2R,4S,5R,6R)-2-((4-(but-3-yn-1-yloxy)benzyl)oxy)-6-((1R,2R)-1,2-dihydroxy-3-(2-(2-morpholinophenyl)acetamido)propyl)-4-hydroxy-5-(2-hydroxyacetamido)tetrahydro-2H-pyran-2-carboxylic acid]
> 10	> 10	> 10	C#CCNC(=O)CCOCCOCCO[C@]1(c2nn[nH]n2)C[C@H](O)[C@@H](NC(=O)CO)[C@H]([C@H](O)[C@H](O)CNC(=O)Cc2ccc(Cl)cc2)O1 [Compound 226, 3-(2-(2-(((2R,4S,5R,6R)-6-((1R,2R)-3-(2-(4-chlorophenyl)acetamido)-1,2-dihydroxypropyl)-4-hydroxy-5-(2-hydroxyacetamido)-2-(2H-tetrazol-5-yl)tetrahydro-2H-pyran-2-yl)oxy)ethoxy)ethoxy)-N-(prop-2-yn-1-yl)propanamide]
< 1	< 1	< 1	CC(=O)NCCOCCOCCOCCOCCNc1c(NCCCCCCO[C@]2(C(=O)O)C[C@H](O)[C@@H](NC(=O)CO)[C@H]([C@H](O)[C@H](O)CNC(=O)Cc3ccc(C(F)F)cc3)O2)c(=O)c1=O [Cpd. 258, (2R,4S,5R,6R)-6-((1R,2R)-3-(2-(4-(difluoromethyl)phenyl)acetamido)-1,2-dihydroxypropyl)-2-((6-((3,4-dioxo-2-((2-oxo-6,9,12,15-tetraoxa-3-azaheptadecan-17-yl)amino)cyclobut-1-en-1-yl)amino)hexyl)oxy)-4-hydroxy-5-(2-hydroxyacetamido)tetrahydro-2H-pyran-2-carboxylic acid]
> 10	> 10	> 10	NCC(O)CO[C@]1(C(=O)O)C[C@H](O)[C@@H](NC(=O)CO)[C@H]([C@H](O)[C@H](O)CNC(=O)Cc2ccc(Cl)cc2)O1 (stereo partly drawn) [Compound 104, (2R,4S,5R,6R)-2-(3-amino-2-hydroxypropoxy)-6-((1R,2R)-3-(2-(4-chlorophenyl)acetamido)-1,2-dihydroxypropyl)-4-hydroxy-5-(2-hydroxyacetamido)tetrahydro-2H-pyran-2-carboxylic acid]
